Measurements taken from patent US10336761B2, “TGFβ receptor antagonist” (BRISTOL-MYERS SQUIBB COMPANY, priority 2015, dated 2019).

Molecular target: HIS-TGFβR1 T204D (Homo sapiens (Human), UniProt P36897, T204D)
Experiment: HTRF probe-displacement assay, HIS-TGFβR1 T204D
Format: binding
Details: 1 hour at room temperature

Chain of HIS-TGFβR1 T204D (P36897 34-503 T204D): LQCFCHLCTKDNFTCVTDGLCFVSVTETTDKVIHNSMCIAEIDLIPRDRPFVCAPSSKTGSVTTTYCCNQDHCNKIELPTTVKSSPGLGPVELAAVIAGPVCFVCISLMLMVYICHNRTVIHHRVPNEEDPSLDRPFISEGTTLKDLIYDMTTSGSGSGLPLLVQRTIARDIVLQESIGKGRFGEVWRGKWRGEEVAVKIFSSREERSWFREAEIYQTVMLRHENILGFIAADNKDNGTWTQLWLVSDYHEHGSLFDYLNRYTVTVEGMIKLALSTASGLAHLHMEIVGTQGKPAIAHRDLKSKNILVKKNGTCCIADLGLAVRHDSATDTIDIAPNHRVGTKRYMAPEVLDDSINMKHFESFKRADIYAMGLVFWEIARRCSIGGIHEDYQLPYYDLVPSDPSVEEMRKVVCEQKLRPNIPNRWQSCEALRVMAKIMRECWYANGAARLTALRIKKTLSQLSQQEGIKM

Row | IC50 [nM] | Structure (SMILES)
1 | 32 | CN1CCN(Cc2ccn3nc(-c4cccc(C(F)(F)F)n4)nc(Nc4ccncc4F)c23)CC1 [Example 26, 3-fluoro-N-{5-[(4-methylpiperazin-1-yl)methyl]-2-[6-(trifluoromethyl)pyridin-2-yl]pyrrolo[2,1-f][1,2,4]triazin-4-yl}pyridin-4-amine]
2 | 2.6 | O=C(CN1CCOCC1)Nc1cc(Nc2nc(-c3cccc(C(F)(F)F)n3)nn3cccc23)ccn1 [Example 331, 2-(morpholin-4-yl)-N-[4-({2-[6-(trifluoromethyl)pyridin-2-yl]pyrrolo[2,1-f][1,2,4]triazin-4-yl}amino)pyridin-2-yl]acetamide]
3 | 19 | CCN(CC)CCNC(=O)c1cnccc1Nc1nc(-c2ccccn2)nn2cccc12 [Example 143, N-[2-(diethylamino)ethyl]-4-{[2-(pyridin-2-yl)pyrrolo[2,1-f][1,2,4]triazin-4-yl]amino}pyridine-3-carboxamide]
4 | 10 | Fc1cnccc1Nc1nc(-c2ccccn2)nn2ccc(CNCC3CNC3)c12 [Example 266, N-(5-{[(azetidin-3-ylmethyl)amino]methyl}-2-(pyridin-2-yl)pyrrolo[2,1-f][1,2,4]triazin-4-yl)-3-fluoropyridin-4-amine]
5 | 11 | FC(F)c1cnccc1Nc1nc(-c2cccc(C(F)(F)F)n2)nn2cccc12 [Example 2, 3-(difluoromethyl)-N-{2-[6-(trifluoromethyl)pyridin-2-yl]pyrrolo[2,1-f][1,2,4]triazin-4-yl}pyridin-4-amine]
6 | 42 | O=C(NCc1ccn[nH]1)c1cnccc1Nc1nc(-c2cccc(C(F)F)n2)nn2cccc12 [Example 197, 4-({2-[6-(difluoromethyl)pyridin-2-yl]pyrrolo[2,1-f][1,2,4]triazin-4-yl}amino)-N-(1H-pyrazol-5-ylmethyl)pyridine-3-carboxamide]
7 | < 0.25 | OCC1(CNCc2ccn3nc(-c4ccccn4)nc(Nc4ccncc4F)c23)COC1 [Example 296, (3-{[({4-[(3-fluoropyridin-4-yl)amino]-2-(pyridin-2-yl)pyrrolo[2,1-f][1,2,4]triazin-5-yl}methyl)amino]methyl}oxetan-3-yl)methanol]
8 | 86 | COc1cccc(-c2nc(Nc3ccncc3F)c3cc(NC(C)=O)cn3n2)n1 [Example 104, N-{4-[(3-fluoropyridin-4-yl)amino]-2-(6-methoxypyridin-2-yl)pyrrolo[2,1-f][1,2,4]triazin-6-yl}acetamide]
9 | 0.84 | CC(=O)Nc1cc(Nc2nc(-c3ccc(F)c(C)n3)nn3cccc23)ccn1 [Example 19, N-(4-{[2-(5-fluoro-6-methylpyridin-2-yl)pyrrolo[2,1-f][1,2,4]triazin-4-yl]amino}pyridin-2-yl)acetamide]
10 | 22 | COc1cccc(-c2nc(Nc3ccncc3F)c3c(CN4CCN(C)CC4)ccn3n2)n1 [Example 121, 3-fluoro-N-[2-(6-methoxypyridin-2-yl)-5-[(4-methylpiperazin-1-yl)methyl]pyrrolo[2,1-f][1,2,4]triazin-4-yl]pyridin-4-amine]
11 | 5.4 | CN1CCC(CCNCc2ccn3nc(-c4ccccn4)nc(Nc4ccncc4F)c23)CC1 [Example 303, 3-fluoro-N-[5-({[2-(1-methylpiperidin-4-yl)ethyl]amino}methyl)-2-(pyridin-2-yl)pyrrolo[2,1-f][1,2,4]triazin-4-yl]pyridin-4-amine]
12 | 1400 | COc1cccc(-c2nc(Nc3ccncc3F)c3cc(NC(=O)CN4CCOCC4)cn3n2)n1 [Example 106, N-{4-[(3-fluoropyridin-4-yl)amino]-2-(6-methoxypyridin-2-yl)pyrrolo[2,1-f][1,2,4]triazin-6-yl}-2-(morpholin-4-yl)acetamide]
13 | 16 | CCc1cc2c(Nc3ccncc3F)nc(-c3cccc(OC)n3)nn2c1 [Example 29, 6-ethyl-N-(3-fluoropyridin-4-yl)-2-(6-methoxypyridin-2-yl)pyrrolo[2,1-f][1,2,4]triazin-4-amine]
14 | 0.85 | O[C@@H]1CCN(Cc2ccn3nc(-c4ccccn4)nc(Nc4ccncc4F)c23)C1 [Example 233, (3R)-1-({4-[(3-fluoropyridin-4-yl)amino]-2-(pyridin-2-yl)pyrrolo[2,1-f][1,2,4]triazin-5-yl}methyl)pyrrolidin-3-ol]
15 | 30 | Cc1nc2ccc(NCc3ccn4nc(-c5ccccn5)nc(Nc5ccncc5F)c34)cc2s1 [Example 295, N-({4-[(3-fluoropyridin-4-yl)amino]-2-(pyridin-2-yl)pyrrolo[2,1-f][1,2,4]triazin-5-yl}methyl)-2-methyl-1,3-benzothiazol-6-amine]
16 | 4000 | CS(=O)(=O)Nc1cc(Nc2nc(-c3cccc(C(F)(F)F)n3)nn3cccc23)ccn1 [Example 318, N-[4-({2-[6-(trifluoromethyl)pyridin-2-yl]pyrrolo[2,1-f][1,2,4]triazin-4-yl}amino)pyridin-2-yl]methanesulfonamide]
17 | 6.3 | OCC1(NCc2ccn3nc(-c4ccccn4)nc(Nc4ccncc4F)c23)CCCC1 [Example 244, {1-[({4-[(3-fluoropyridin-4-yl)amino]-2-(pyridin-2-yl)pyrrolo[2,1-f][1,2,4]triazin-5-yl}methyl)amino]cyclopentyl}methanol]

Row | IC50 [nM] | Structure (SMILES)
18 | 32 | O=C(NCc1ccccn1)c1cnccc1Nc1nc(-c2cccc(C(F)F)n2)nn2cccc12 [Example 181, 4-({2-[6-(difluoromethyl)pyridin-2-yl]pyrrolo[2,1-f][1,2,4]triazin-4-yl}amino)-N-(pyridin-2-ylmethyl)pyridine-3-carboxamide]
19 | 1.2 | O=C(CCN1CCC(O)CC1)Nc1cc(Nc2nc(-c3cccc(C(F)(F)F)n3)nn3cccc23)ccn1 [Example 340, 3-(4-hydroxypiperidin-1-yl)-N-[4-({2-[6-(trifluoromethyl)pyridin-2-yl]pyrrolo[2,1-f][1,2,4]triazin-4-yl}amino)pyridin-2-yl]propanamide]
20 | 130 | COc1cccc(-c2nc(Nc3ccncc3F)c3cc(NC(=O)CNS(C)(=O)=O)cn3n2)n1 [Example 110, N-{4-[(3-fluoropyridin-4-yl)amino]-2-(6-methoxypyridin-2-yl)pyrrolo[2,1-f][1,2,4]triazin-6-yl}-2-methanesulfonamidoacetamide]
21 | 140 | COc1cccc(-c2nc(Nc3ccncc3F)c3cc(N)cn3n2)n1 [Example 103, 4-N-(3-fluoropyridin-4-yl)-2-(6-methoxypyridin-2-yl)pyrrolo[2,1-f][1,2,4]triazine-4,6-diamine]
22 | 1.6 | Fc1cnccc1Nc1nc(-c2ccccn2)nn2ccc(CNCCCn3ccnc3)c12 [Example 281, 3-fluoro-N-[5-({[3-(1H-imidazol-1-yl)propyl]amino}methyl)-2-(pyridin-2-yl)pyrrolo[2,1-f][1,2,4]triazin-4-yl]pyridin-4-amine]
23 | 38 | COc1cccc(-c2nc(Nc3ccncc3F)c3c(C(O)CN4CCC(F)(F)CC4)ccn3n2)n1 (stereo not shown) [Example 129, 2-(4,4-difluoropiperidin-1-yl)-1-{4-[(3-fluoropyridin-4-yl)amino]-2-(6-methoxypyridin-2-yl)pyrrolo[2,1-f][1,2,4]triazin-5-yl}ethan-1-ol]
24 | 6600 | COc1cccc(-c2nc(Nc3ccnc(NCC(C)(C)O)c3)c3c(C)ccn3n2)n1 [Example 138, 1-[(4-{[2-(6-methoxypyridin-2-yl)-5-methylpyrrolo[2,1-f][1,2,4]triazin-4-yl]amino}pyridin-2-yl)amino]-2-methylpropan-2-ol]
25 | 0.25 | CC(=O)Nc1cc(Nc2nc(-c3ccccn3)nn3ccc(CN4CCOCC4)c23)ccn1 [Example 293, N-(4-{[5-(morpholin-4-ylmethyl)-2-(pyridin-2-yl)pyrrolo[2,1-f][1,2,4]triazin-4-yl]amino}pyridin-2-yl)acetamide]
26 | 530 | COc1nccc(-c2nc(Nc3ccncc3F)c3cccn3n2)n1 [Example 101, 3-fluoro-N-[2-(2-methoxypyrimidin-4-yl)pyrrolo[2,1-f][1,2,4]triazin-4-yl]pyridin-4-amine]
27 | 7700 | COc1cccc(-c2nc(Nc3ccncc3F)c3cc(CNCCCN4CCS(=O)(=O)CC4)cn3n2)n1 [Example 209, 4-{3-[({4-[(3-fluoropyridin-4-yl)amino]-2-(6-methoxypyridin-2-yl)pyrrolo[2,1-f][1,2,4]triazin-6-yl}methyl)amino]propyl}-1,4-thiomorpholine-1,1-dione]
28 | 2.9 | COc1cccc(-c2nc(Nc3ccnc(NC(C)=O)c3)c3cccn3n2)n1 [Example 97, N-(4-{[2-(6-methoxypyridin-2-yl)pyrrolo[2,1-f][1,2,4]triazin-4-yl]amino}pyridin-2-yl)acetamide]
29 | 1.6 | Nc1cccc(-c2nc(Nc3ccncc3F)c3cccn3n2)n1 [Example 53, 2-(6-aminopyridin-2-yl)-N-(3-fluoropyridin-4-yl)pyrrolo[2,1-f][1,2,4]triazin-4-amine]
30 | 1600 | COc1cccc(-c2nc(Nc3ccncc3F)c3cc(NC(=O)CN)cn3n2)n1 [Example 109, 2-amino-N-{4-[(3-fluoropyridin-4-yl)amino]-2-(6-methoxypyridin-2-yl)pyrrolo[2,1-f][1,2,4]triazin-6-yl}acetamide]
31 | 2.6 | Cc1cnc(CNCc2ccn3nc(-c4ccccn4)nc(Nc4ccncc4F)c23)cn1 [Example 305, 3-fluoro-N-[5-({[(5-methylpyrazin-2-yl)methyl]amino}methyl)-2-(pyridin-2-yl)pyrrolo[2,1-f][1,2,4]triazin-4-yl]pyridin-4-amine]
32 | 14 | Cc1cccc(-c2nc(Nc3ccncc3C(=O)NC3COC3)c3cccn3n2)n1 [Example 165, 4-{[2-(6-methylpyridin-2-yl)pyrrolo[2,1-f][1,2,4]triazin-4-yl]amino}-N-(oxetan-3-yl)pyridine-3-carboxamide]
33 | 140 | O=C(NCCC(F)(F)F)c1cnccc1Nc1nc(-c2cccc(C(F)F)n2)nn2cccc12 [Example 202, 4-({2-[6-(difluoromethyl)pyridin-2-yl]pyrrolo[2,1-f][1,2,4]triazin-4-yl}amino)-N-(3,3,3-trifluoropropyl)pyridine-3-carboxamide]
34 | 180 | COc1cccc(-c2nc(Nc3ccncc3NC(C)=O)c3cccn3n2)n1 [Example 47, N-(4-{[2-(6-methoxypyridin-2-yl)pyrrolo[2,1-f][1,2,4]triazin-4-yl]amino}pyridin-3-yl)acetamide]
